Where “and” joins values, the source holds several entries; their conditions need not be identical. Equal values may be shown once.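 Growth conditions: 96-well plates. Treatment: test compound, 48 hours, 5 concentrations. Analysis: linear interpolation between bracketing concentrations; unreached endpoints set to highest concentration. GI50 = concentration required for 50% inhibition of growth. TGI is the concentration that stops growth completely.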
Experiments:
Test in all cases: NCI tumour cell line growth inhibition, 48 h
[1] = tested on: SNB-78 CNS
[2] = tested on: DU-145 prostate
[3] = tested on: ACHN renal
[4] = tested on: HOP-18 NSCLC
[5] = tested on: LXFL 529 NSCLC
[6] = tested on: XF 498 CNS
[7] = tested on: HT29 colon
[8] = tested on: DMS 273 small cell lung
[9] = tested on: UACC-257 melanoma
[10] = tested on: DLD-1 colon
[11] = tested on: SK-MEL-28 melanoma
[12] = tested on: DMS 114 small cell lung
[13] = tested on: RXF-631 renal
[14] = tested on: P388/ADR leukemia
[15] = tested on: SN12K1 renal
[16] = tested on: SNB-75 CNS
[17] = tested on: KM20L2 colon
[18] = tested on: P388 leukemia
[19] = tested on: RXF 393 renal
[20] = tested on: MDA-N
[21] = tested on: HS 578T breast
[22] = tested on: SR leukemia
[23] = tested on: IGROV1 ovarian
[24] = tested on: HL-60(TB) leukemia
[25] = tested on: CAKI-1 renal
[26] = tested on: EKVX NSCLC
[27] = tested on: UACC-62 melanoma
[28] = tested on: SK-MEL-2 melanoma
[29] = tested on: LOX IMVI melanoma
[30] = tested on: NCI-H460 lung
[31] = tested on: SK-OV-3 ovarian
[32] = tested on: HCT-15 colon
[33] = tested on: SF-268 CNS
[34] = tested on: A498 renal
[35] = tested on: RPMI-8226 leukemia
[36] = tested on: OVCAR-8 ovarian
[37] = tested on: MCF7 breast
[38] = tested on: SK-MEL-5 melanoma
[39] = tested on: SF-539 CNS
[40] = tested on: OVCAR-5 ovarian
[41] = tested on: K-562 leukemia
[42] = tested on: OVCAR-4 ovarian
[43] = tested on: KM12 colon
[44] = tested on: HCT-116 colon
[45] = tested on: NCI/ADR-RES ovarian
[46] = tested on: HOP-92 NSCLC
[47] = tested on: MALME-3M melanoma
[48] = tested on: U251 CNS
[49] = tested on: SNB-19 CNS
[50] = tested on: SW-620 colon
[51] = tested on: NCI-H23 lung
[52] = tested on: HCC-2998 colon
[53] = tested on: A549 NSCLC
[54] = tested on: HOP-62 NSCLC
[55] = tested on: OVCAR-3 ovarian
[56] = tested on: UO-31 renal
[57] = tested on: NCI-H226 lung
[58] = tested on: NCI-H522 lung
[59] = tested on: CCRF-CEM leukemia
[60] = tested on: COLO 205 colon
[61] = tested on: SN12C renal
[62] = tested on: SF-295 CNS
[63] = tested on: MOLT-4 leukemia
[64] = tested on: M19-MEL melanoma

With CC[C@]1(O)C[C@H]2CN(CCc3c([nH]c4ccccc34)[C@@](C(=O)OC)(c3cc4c(cc3OC)N(C)[C@H]3[C@@](O)(C(=O)OC)[C@H](OC(C)=O)[C@]5(CC)C=CCN6CC[C@]43[C@@H]65)C2)C1 the TGI [1] was 1.7 µM, the GI50 [2] was 7.48 pM and the GI50 [3] was 0.0527 nM. For the same molecule, the TGI [4] was 1.51 µM, the TGI [5] was 1.06 µM and the TGI [6] was 0.0333 µM. For the same molecule, the TGI [7] was 0.124 µM, the TGI [8] was 0.123 µM and the TGI [9] was 1.89 µM and 2.5 µM and 16.1 µM. It also gave a TGI [10] of 2.5 µM, a GI50 [11] of 7.41 pM and a TGI [12] of 0.00581 µM. For the same molecule, the TGI [13] was 1.03 µM, the TGI [14] was 0.931 µM and the TGI [15] was 0.0027 µM. The TGI [16] was 0.025 µM and 0.0807 µM, the GI50 [17] was 0.025 nM and the TGI [17] was 0.00183 µM. The TGI [18] was 0.139 µM, the GI50 [19] was 0.00135 µM and the TGI [20] was 0.00025 µM and 0.000771 µM. For the same molecule, the TGI [21] was 0.24 µM and 1.37 µM and the GI50 [22] was under 2.5 pM.
Molecule CSCC(CO)NC(=O)/C=C/c1c(C)[nH]c(=O)[nH]c1=O (stereo unspecified) has a TGI [23] of over 875 µM, a TGI [24] of over 875 µM and a TGI [25] of over 87.5 µM. The TGI [26] was 872 µM, the TGI [1] was over 875 µM and the TGI [27] was over 875 µM. The TGI [28] was over 875 µM, the TGI [29] was over 875 µM and the TGI [30] was over 875 µM. For the same molecule, the TGI [31] was over 875 µM, the TGI [32] was over 875 µM and the TGI [33] was over 875 µM. It also gave a TGI [4] of over 875 µM, a TGI [34] of over 875 µM and a TGI [35] of over 875 µM. For the same molecule, the TGI [6] was 815 µM, the TGI [7] was over 875 µM and the TGI [8] was over 875 µM. For the same molecule, the TGI [36] was over 348 µM, the TGI [37] was over 609 µM and the TGI [38] was over 875 µM. It also gave a TGI [9] of over 875 µM, a TGI [10] of over 875 µM and a TGI [39] of over 875 µM. For the same molecule, the TGI [40] was over 875 µM, the TGI [41] was over 875 µM and the TGI [42] was 389 µM. The TGI [11] was over 875 µM, the TGI [12] was over 801 µM and the TGI [43] was over 875 µM. For the same molecule, the TGI [44] was over 875 µM, the TGI [45] was over 875 µM and the TGI [46] was 742 µM. For the same molecule, the TGI [47] was over 875 µM, the TGI [48] was over 875 µM and the TGI [49] was over 875 µM. For the same molecule, the TGI [50] was over 492 µM, the TGI [14] was over 875 µM and the TGI [15] was over 875 µM. The TGI [16] was over 875 µM, the TGI [51] was over 875 µM and the TGI [52] was 479 µM. For the same molecule, the TGI [53] was over 875 µM, the TGI [54] was over 875 µM and the TGI [55] was 444 µM. It also gave a TGI [56] of over 875 µM, a TGI [57] of over 875 µM and a TGI [17] of over 875 µM. The TGI [58] was 499 µM, the TGI [18] was over 875 µM and the TGI [19] was over 875 µM. For the same molecule, the TGI [59] was over 875 µM, the TGI [60] was over 775 µM and the TGI [61] was over 875 µM. The TGI [62] was over 875 µM, the TGI [63] was over 875 µM and the TGI [64] was over 875 µM.
Molecule c1ccc2c(c1)SP1Sc3ccccc3P21 (stereo unspecified) has a TGI [23] of over 100 µM, a TGI [24] of over 100 µM and a TGI [26] of over 100 µM. For the same molecule, the TGI [1] was over 100 µM, the TGI [27] was over 100 µM and the TGI [28] was over 100 µM. The TGI [29] was over 100 µM, the TGI [30] was over 100 µM and the TGI [31] was over 100 µM. It also gave a TGI [32] of over 100 µM, a TGI [33] of over 100 µM and a TGI [4] of 73.1 µM. It also gave a TGI [34] of over 100 µM, a TGI [35] of over 100 µM and a TGI [6] of over 100 µM. It also gave a TGI [7] of over 100 µM, a TGI [8] of over 100 µM and a TGI [36] of over 100 µM. It also gave a TGI [37] of over 100 µM, a TGI [38] of over 100 µM and a TGI [9] of over 100 µM. It also gave a TGI [10] of over 100 µM, a TGI [39] of over 100 µM and a TGI [40] of over 100 µM. The TGI [41] was over 100 µM, the TGI [42] was over 100 µM and the TGI [11] was over 100 µM. The TGI [12] was over 100 µM, the TGI [43] was over 100 µM and the TGI [44] was over 100 µM. For the same molecule, the TGI [45] was over 100 µM, the TGI [46] was over 100 µM and the TGI [47] was over 100 µM. The TGI [48] was over 100 µM, the TGI [49] was over 31.6 µM and the TGI [50] was over 100 µM. For the same molecule, the TGI [14] was over 100 µM, the TGI [15] was over 100 µM and the TGI [16] was over 100 µM. It also gave a TGI [51] of over 100 µM, a TGI [52] of over 100 µM and a TGI [53] of over 100 µM. For the same molecule, the TGI [54] was over 100 µM, the TGI [55] was over 100 µM and the TGI [56] was over 100 µM. It also gave a TGI [57] of over 66.6 µM, a TGI [17] of over 100 µM and a TGI [58] of over 100 µM. For the same molecule, the TGI [18] was over 100 µM, the TGI [19] was over 100 µM and the TGI [59] was over 100 µM. The TGI [60] was over 100 µM, the TGI [61] was over 100 µM and the TGI [62] was over 100 µM. It also gave a TGI [63] of over 100 µM and a TGI [64] of over 100 µM.

From PubChem BioAssay (NCI)
